Assay results published in article PMC2894482 (Journal of medicinal chemistry, 2009).

What was measured:
[1] = system: cocaine self-administration; settings: cited from earlier work
[2] = molecular target: T1, mGluR5 (Rattus norvegicus, UniProt P31424); test: mGluR5 radioligand binding with [3H]1, rat brain membranes
[3] = molecular target: rat mGluR5 (Rattus norvegicus, UniProt P31424); test: Calcium fluorescence assay; assay type: cell-based
[4] = molecular target: T1, mGluR5; assay type: binding; settings: alkyne 11 vs similarly substituted amide 34
[5] = system: rats; test: Preliminary in vivo testing in rats; settings: personal communication with Dr. S. Barak Caine

T1 sequence (P31424 21-1203): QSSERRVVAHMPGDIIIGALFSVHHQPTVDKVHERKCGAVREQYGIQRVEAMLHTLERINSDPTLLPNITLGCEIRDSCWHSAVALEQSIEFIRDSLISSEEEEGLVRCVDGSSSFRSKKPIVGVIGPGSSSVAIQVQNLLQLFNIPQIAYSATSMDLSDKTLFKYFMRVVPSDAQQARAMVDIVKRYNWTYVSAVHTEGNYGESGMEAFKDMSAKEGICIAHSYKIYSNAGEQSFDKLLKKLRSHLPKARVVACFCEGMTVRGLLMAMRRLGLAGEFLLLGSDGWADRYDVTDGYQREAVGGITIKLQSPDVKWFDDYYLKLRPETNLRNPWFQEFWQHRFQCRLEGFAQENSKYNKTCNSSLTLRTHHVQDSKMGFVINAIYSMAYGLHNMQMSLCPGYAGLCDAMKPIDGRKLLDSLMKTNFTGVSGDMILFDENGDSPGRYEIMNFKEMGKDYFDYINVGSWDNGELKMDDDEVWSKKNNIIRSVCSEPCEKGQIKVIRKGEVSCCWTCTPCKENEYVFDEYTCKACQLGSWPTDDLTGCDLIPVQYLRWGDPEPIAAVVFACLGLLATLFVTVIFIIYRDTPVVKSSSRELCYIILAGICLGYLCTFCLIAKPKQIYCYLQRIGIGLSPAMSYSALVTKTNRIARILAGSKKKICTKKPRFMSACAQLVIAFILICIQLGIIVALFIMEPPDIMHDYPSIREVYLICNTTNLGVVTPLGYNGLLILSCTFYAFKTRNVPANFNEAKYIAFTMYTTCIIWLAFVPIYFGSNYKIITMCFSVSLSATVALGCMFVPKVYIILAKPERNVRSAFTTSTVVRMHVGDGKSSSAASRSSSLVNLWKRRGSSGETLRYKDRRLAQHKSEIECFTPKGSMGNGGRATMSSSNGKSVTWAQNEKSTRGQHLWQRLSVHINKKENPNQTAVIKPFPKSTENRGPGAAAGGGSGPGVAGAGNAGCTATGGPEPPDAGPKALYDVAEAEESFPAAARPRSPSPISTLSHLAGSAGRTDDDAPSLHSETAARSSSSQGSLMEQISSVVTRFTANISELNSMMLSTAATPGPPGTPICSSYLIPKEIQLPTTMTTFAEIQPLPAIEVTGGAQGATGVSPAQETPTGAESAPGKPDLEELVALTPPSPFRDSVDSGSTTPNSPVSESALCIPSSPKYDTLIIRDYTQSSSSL
Chain of rat mGluR5 (P31424 21-1203): as above

SMILES	Ki [2]	IC50 [3]	other results
Cc1cccc(C#Cc2ccccc2)n1 [Compound 1, 2-methyl-6-(phenylethynyl)pyridine]			effect on cocaine self-administration [1]: dose-dependently decreases; effect on food intake ([1]; identical schedules of reinforcement): no effect
Cc1cccc(C#Cc2ccc(-c3cccc(F)c3)c(C#N)c2)n1 [Compound 22, 2-(3-Fluorophenyl)-5-(6-methylpyridin-2-ylethynyl)benzonitrile]	17 ± 2.2 nM	6.1 ± 1.95 nM	
Cc1cccc(C#Cc2ccc(-c3ccccc3)c(C#N)c2)n1 [Compound 21, 2-Phenyl-5-(6-methylpyridin-2-ylethynyl)benzonitrile]	4 ± 0.6 nM	3.08 ± 0.61 nM	
Cc1nc(C#Cc2cc(F)cc(C#N)c2)cs1 [Compound 11, 3-Fluoro-5-cyano-1-(2-methylthiazol-4-ylethynyl)benzene]			fold higher affinity at mGluR5 than the amide [4]: > 70 fold; toxicity in preliminary in vivo testing [5]: showed toxicity
